Earlier results in patent US9040083B2, “Orally effective methylphenidate extended release powder and aqueous suspension product” (Tris Pharma, Inc., priority 2011, dated 2015).

Conditions: oral dosing of radiolabeled methylphenidate in humans

In the case of COC(=O)C(c1ccccc1)C1CCCCN1 (stereo not shown) [methylphenidate], the “radioactivity recovered in urine” value is listed as “about 90%”.
